Source: PubChem BioAssay AID248 (DTP/NCI, 2004)
Where “and” joins values, the source holds several entries; their conditions need not be identical. Equal entries are not always repeated. Toxic doses and inconclusive results are not listed. Cut-off read from the data, not from the text of the source: active = T/C of 150% or more; inactive = T/C below 125%.

Test system: L1210 leukemia ip in BDF1 mice, survival T/C
Experiment: NCI In Vivo Anticancer Drug Screen. Data for tumor model L1210 Leukemia (intraperitoneal) in B6D2F1 (BDF1) mice
Conditions: higher = longer survival
Outline: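 Transplanted-tumor mice were given test agent; controls received vehicle only. Survival readings from the two groups were divided (treated over control).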

[1] = endpoint: mean survival time, dose: 50.0 mg/kg/injection, schedule: Q01DX001 (ip), vehicle: saline
[2] = endpoint: mean survival time, dose: 100.0 mg/kg/injection, schedule: Q01DX001 (ip), vehicle: saline
[3] = endpoint: mean survival time, dose: 200.0 mg/kg/injection, schedule: Q01DX001 (ip), vehicle: saline
[4] = endpoint: mean survival time, dose: 400.0 mg/kg/injection, schedule: Q01DX001 (ip), vehicle: saline
[5] = endpoint: mean survival time, dose: 50.0 mg/kg/injection, schedule: Q01DX009 (ip), vehicle: saline
[6] = endpoint: mean survival time, dose: 100.0 mg/kg/injection, schedule: Q01DX009 (ip), vehicle: saline
[7] = endpoint: mean survival time, dose: 200.0 mg/kg/injection, schedule: Q01DX009 (ip), vehicle: saline
[8] = endpoint: mean survival time, dose: 100.0 mg/kg/injection, schedule: Q04DX003 (ip), vehicle: Klucel (hydroxypropylcellulose) (HPC)
[9] = endpoint: mean survival time, dose: 200.0 mg/kg/injection, schedule: Q04DX003 (ip), vehicle: Klucel (hydroxypropylcellulose) (HPC)
[10] = endpoint: mean survival time, dose: 400.0 mg/kg/injection, schedule: Q04DX003 (ip), vehicle: Klucel (hydroxypropylcellulose) (HPC)

Measured: T/C

CNCC(=O)NC(CO)C(=O)NC1C(C(N)=O)OC(n2ccc(N)nc2=O)C(O)C1O (configuration not stated)
inactive: endpoint: median survival time, dose: 0.75 mg/kg/injection, schedule: Q04DX003 (ip), vehicle: saline 96 % of control | endpoint: median survival time, dose: 1.5 mg/kg/injection, schedule: Q04DX003 (ip), vehicle: saline 101 % of control | endpoint: median survival time, dose: 3.0 mg/kg/injection, schedule: Q04DX003 (ip), vehicle: saline 94 % of control

O=C(O)C(=O)O.[Co+3].[NH-]C(Cc1ccccc1)C(=O)[O-].[NH-]CCN(CC[NH-])CC[NH-] (configuration not stated)
inactive: [1] 110 % of control | [2] 105 % of control | [3] 104 % of control | [4] 102 % of control

O=S(=O)(O)CCl
inactive: endpoint: mean survival time, dose: 100.0 mg/kg/injection, schedule: Q04DX002 (ip), vehicle: saline 106 % of control | endpoint: mean survival time, dose: 200.0 mg/kg/injection, schedule: Q04DX002 (ip), vehicle: saline 120 % of control | endpoint: mean survival time, dose: 400.0 mg/kg/injection, schedule: Q04DX002 (ip), vehicle: saline 102 % of control

CCCCN(CCCC)N=Nc1c[nH]c(=O)[nH]c1=O
inactive: endpoint: mean survival time, dose: 8.0 mg/kg/injection, schedule: Q01DX Z (ip), vehicle: carboxymethylcellulose (CMC) 114 % of control | endpoint: mean survival time, dose: 16.0 mg/kg/injection, schedule: Q01DX Z (ip), vehicle: carboxymethylcellulose (CMC) 109 % of control

CCCCC(CC)COC(=O)CC(CC(=O)OCC(CC)CCCC)C(=O)OCC(CC)CCCC (configuration not stated)
inactive: [5] 111 % of control | [6] 97 % of control | [7] 92 % of control

CC1=NNC(=O)C1
inactive: endpoint: mean survival time, dose: 50.0 mg/kg/injection, schedule: Q01DX009 (ip), vehicle: carboxymethylcellulose (CMC) 100 % of control | endpoint: mean survival time, dose: 100.0 mg/kg/injection, schedule: Q01DX009 (ip), vehicle: carboxymethylcellulose (CMC) 114 % of control | [8] 89 % of control | endpoint: mean survival time, dose: 100.0 mg/kg/injection, schedule: Q04DX003 (ip), vehicle: saline with Tween-80 112 % of control | endpoint: mean survival time, dose: 200.0 mg/kg/injection, schedule: Q01DX009 (ip), vehicle: carboxymethylcellulose (CMC) 114 % of control | [9] 98 % of control | endpoint: mean survival time, dose: 200.0 mg/kg/injection, schedule: Q04DX003 (ip), vehicle: saline with Tween-80 105 % of control | [10] 96 % of control | endpoint: mean survival time, dose: 400.0 mg/kg/injection, schedule: Q04DX003 (ip), vehicle: saline with Tween-80 112 % of control

CCOC(=O)Cn1c(=O)c2ccccc2c2cc([N+](=O)[O-])ccc21
inactive: [8] 95 % of control | [9] 97 % of control | [10] 86 % of control

O=c1[nH]cc(Nc2ccccc2)c(=O)[nH]1
inactive: [8] 95 % of control | [9] 92 % of control | [10] 88 % of control

[O-][n+]1c(C(Cl)(Cl)Cl)cc(Cl)nc1Cl
inactive: endpoint: mean survival time, dose: 100.0 mg/kg/injection, schedule: Q01DX001 (ip), vehicle: Klucel (hydroxypropylcellulose) (HPC) 98 % of control | endpoint: mean survival time, dose: 200.0 mg/kg/injection, schedule: Q01DX001 (ip), vehicle: Klucel (hydroxypropylcellulose) (HPC) 97 % of control

CC(C)CC(CC(C)C)NCC(C)OC(=O)c1ccc([N+](=O)[O-])cc1 (configuration not stated)
inactive: endpoint: mean survival time, dose: 100.0 mg/kg/injection, schedule: Q01DX009 (ip), vehicle: water 93 % of control | endpoint: mean survival time, dose: 100.0 mg/kg/injection, schedule: Q04DX003 (ip), vehicle: water 98 % of control | endpoint: mean survival time, dose: 200.0 mg/kg/injection, schedule: Q01DX009 (ip), vehicle: water 88 % of control | endpoint: mean survival time, dose: 200.0 mg/kg/injection, schedule: Q04DX003 (ip), vehicle: water 98 % of control | endpoint: mean survival time, dose: 400.0 mg/kg/injection, schedule: Q01DX009 (ip), vehicle: water 86 % of control | endpoint: mean survival time, dose: 400.0 mg/kg/injection, schedule: Q04DX003 (ip), vehicle: water 96 % of control

CSC(=NC#N)SC
inactive: endpoint: mean survival time, dose: 1.5 mg/kg/injection, schedule: Q01DX009 (ip), vehicle: Klucel (hydroxypropylcellulose) (HPC) 100 % of control | endpoint: mean survival time, dose: 1.5 mg/kg/injection, schedule: Q04DX003 (ip), vehicle: Klucel (hydroxypropylcellulose) (HPC) 100 % of control | endpoint: mean survival time, dose: 3.0 mg/kg/injection, schedule: Q01DX009 (ip), vehicle: Klucel (hydroxypropylcellulose) (HPC) 101 % of control | endpoint: mean survival time, dose: 3.0 mg/kg/injection, schedule: Q04DX003 (ip), vehicle: Klucel (hydroxypropylcellulose) (HPC) 90 % of control | endpoint: mean survival time, dose: 6.0 mg/kg/injection, schedule: Q01DX009 (ip), vehicle: Klucel (hydroxypropylcellulose) (HPC) 95 % of control | endpoint: mean survival time, dose: 6.0 mg/kg/injection, schedule: Q04DX003 (ip), vehicle: Klucel (hydroxypropylcellulose) (HPC) 97 % of control

O=C(O)C(O)C(O)C(O)C(O)C(=O)O (configuration not stated)
inactive: [5] 92 % of control | [6] 94 % of control | [8] 95 % of control | [7] 89 % of control | [9] 91 % of control | endpoint: mean survival time, dose: 400.0 mg/kg/injection, schedule: Q01DX009 (ip), vehicle: saline 92 % of control | [10] 91 % of control | endpoint: mean survival time, dose: 600.0 mg/kg/injection, schedule: Q01DX001 (ip), vehicle: saline 90 % of control | endpoint: mean survival time, dose: 600.0 mg/kg/injection, schedule: Q01DX009 (ip), vehicle: saline 100 % of control | endpoint: mean survival time, dose: 800.0 mg/kg/injection, schedule: Q01DX001 (ip), vehicle: saline 93 % of control and 90 % of control | endpoint: mean survival time, dose: 800.0 mg/kg/injection, schedule: Q01DX009 (ip), vehicle: saline 97 % of control | endpoint: mean survival time, dose: 1000.0 mg/kg/injection, schedule: Q01DX001 (ip), vehicle: saline 95 % of control and 88 % of control | endpoint: mean survival time, dose: 1000.0 mg/kg/injection, schedule: Q01DX009 (ip), vehicle: saline 100 % of control

O=C1CCCCCCCC1O (configuration not stated)
inactive: [1] 96 % of control | [2] 98 % of control | [3] 102 % of control | [4] 104 % of control

O=c1ccc2ccccc2[nH]1.[Mn]
inactive: endpoint: mean survival time, dose: 5.0 mg/kg/injection, schedule: Q01DX001 (ip), vehicle: carboxymethylcellulose (CMC) 95 % of control | endpoint: mean survival time, dose: 10.0 mg/kg/injection, schedule: Q01DX001 (ip), vehicle: carboxymethylcellulose (CMC) 95 % of control | endpoint: mean survival time, dose: 20.0 mg/kg/injection, schedule: Q01DX001 (ip), vehicle: carboxymethylcellulose (CMC) 97 % of control | endpoint: mean survival time, dose: 40.0 mg/kg/injection, schedule: Q01DX001 (ip), vehicle: carboxymethylcellulose (CMC) 97 % of control

COc1cc([C@@H]2c3cc4c(c(O)c3C[C@H]3COC(=O)[C@@H]32)OCO4)cc(OC)c1O
inactive: endpoint: mean survival time, dose: 0.06 mg/kg/injection, schedule: Q01DX Z (ip), vehicle: saline 100 % of control | endpoint: mean survival time, dose: 0.12 mg/kg/injection, schedule: Q01DX Z (ip), vehicle: saline 100 % of control | endpoint: mean survival time, dose: 0.2 mg/kg/injection, schedule: Q01DX001 (ip), vehicle: carboxymethylcellulose (CMC) 119 % of control | endpoint: mean survival time, dose: 0.25 mg/kg/injection, schedule: Q01DX Z (ip), vehicle: saline 100 % of control | endpoint: mean survival time, dose: 0.5 mg/kg/injection, schedule: Q01DX001 (ip), vehicle: carboxymethylcellulose (CMC) 107 % of control | endpoint: mean survival time, dose: 0.5 mg/kg/injection, schedule: Q01DX Z (ip), vehicle: saline 100 % of control | endpoint: mean survival time, dose: 1.0 mg/kg/injection, schedule: Q01DX001 (ip), vehicle: carboxymethylcellulose (CMC) 107 % of control | endpoint: mean survival time, dose: 2.0 mg/kg/injection, schedule: Q01DX001 (ip), vehicle: carboxymethylcellulose (CMC) 111 % of control | endpoint: mean survival time, dose: 3.6 mg/kg/injection, schedule: Q01DX001 (ip), vehicle: carboxymethylcellulose (CMC) 103 % of control | endpoint: mean survival time, dose: 4.0 mg/kg/injection, schedule: Q01DX001 (ip), vehicle: carboxymethylcellulose (CMC) 119 % of control | endpoint: mean survival time, dose: 5.3 mg/kg/injection, schedule: Q01DX001 (ip), vehicle: carboxymethylcellulose (CMC) 108 % of control | endpoint: mean survival time, dose: 8.0 mg/kg/injection, schedule: Q01DX001 (ip), vehicle: carboxymethylcellulose (CMC) 113 % of control | endpoint: median survival time, dose: 0.06 mg/kg/injection, schedule: Q01DX009 (ip), vehicle: Klucel (hydroxypropylcellulose) (HPC) 100 % of control | endpoint: median survival time, dose: 0.12 mg/kg/injection, schedule: Q01DX009 (ip), vehicle: Klucel (hydroxypropylcellulose) (HPC) 100 % of control | endpoint: median survival time, dose: 0.25 mg/kg/injection, schedule: Q01DX009 (ip), vehicle: Klucel (hydroxypropylcellulose) (HPC) 100 % of control | endpoint: median survival time, dose: 0.5 mg/kg/injection, schedule: Q01DX009 (ip), vehicle: Klucel (hydroxypropylcellulose) (HPC) 111 % of control

c1ccc(P(N2CCOCC2)N2CCOCC2)cc1
inactive: endpoint: mean survival time, dose: 100.0 mg/kg/injection, schedule: Q04DX002 (ip), vehicle: saline with Tween-80 93 % of control | endpoint: mean survival time, dose: 200.0 mg/kg/injection, schedule: Q04DX002 (ip), vehicle: saline with Tween-80 97 % of control | endpoint: mean survival time, dose: 400.0 mg/kg/injection, schedule: Q04DX002 (ip), vehicle: saline with Tween-80 97 % of control

C1CCC(CCNCCC2CCCCC2)CC1
inactive: endpoint: mean survival time, dose: 5.0 mg/kg/injection, schedule: Q01DX001 (ip), vehicle: saline 102 % of control | endpoint: mean survival time, dose: 10.0 mg/kg/injection, schedule: Q01DX001 (ip), vehicle: saline 102 % of control | endpoint: mean survival time, dose: 20.0 mg/kg/injection, schedule: Q01DX001 (ip), vehicle: saline 104 % of control
